Reference: patent US20090326001A1, “THIENOPYRIDINE DERIVATIVES AS MODULATORS OF METABOTROPIC GLUTAMATE RECEPTORS” (priority 2005, published 2009)

Key:
mGluR5 = biological target: T1, mGluR5 (UniProt P31424); experiment: mGluR5 receptor binding test ([3H]-M-MPEP displacement); details: radioligand [3H]-M-MPEP 2 nM; table does not say rat cerebro-cortical membrane or human mGluR5a A18 cells; read-out: mGlu5 Ki
T1 construct: Rat cerebro-cortical membrane preparation
Description: Rat cerebro-cortical membrane preparation was used to determine the binding characteristics of reference compounds and novel compounds to the rat mGluR5. The A18 cell line expressing hmGluR5a (purchased from Euroscreen) was used to determine binding characteristics of the chemical compounds to the human mGluR5a receptor. As radioligand [3H]-M-MPEP (2 nM) was used. The nonspecific binding was determined in the presence of 10 μM M-MPEP.

rat mGluR1 = biological target: T2, rat mGluR1 (Rattus norvegicus, UniProt P23385); experiment: mGluR1 receptor binding test ([3H]R214127 displacement, rat cerebellar membrane); details: radioligand [3H]R214127 3 nM, read-out: mGlu1 Ki
T2 construct: rat cerebellar membrane preparation was used; from tissue; host or cells: rat cerebellum (membrane preparation)
T2 sequence (P23385 19-1199): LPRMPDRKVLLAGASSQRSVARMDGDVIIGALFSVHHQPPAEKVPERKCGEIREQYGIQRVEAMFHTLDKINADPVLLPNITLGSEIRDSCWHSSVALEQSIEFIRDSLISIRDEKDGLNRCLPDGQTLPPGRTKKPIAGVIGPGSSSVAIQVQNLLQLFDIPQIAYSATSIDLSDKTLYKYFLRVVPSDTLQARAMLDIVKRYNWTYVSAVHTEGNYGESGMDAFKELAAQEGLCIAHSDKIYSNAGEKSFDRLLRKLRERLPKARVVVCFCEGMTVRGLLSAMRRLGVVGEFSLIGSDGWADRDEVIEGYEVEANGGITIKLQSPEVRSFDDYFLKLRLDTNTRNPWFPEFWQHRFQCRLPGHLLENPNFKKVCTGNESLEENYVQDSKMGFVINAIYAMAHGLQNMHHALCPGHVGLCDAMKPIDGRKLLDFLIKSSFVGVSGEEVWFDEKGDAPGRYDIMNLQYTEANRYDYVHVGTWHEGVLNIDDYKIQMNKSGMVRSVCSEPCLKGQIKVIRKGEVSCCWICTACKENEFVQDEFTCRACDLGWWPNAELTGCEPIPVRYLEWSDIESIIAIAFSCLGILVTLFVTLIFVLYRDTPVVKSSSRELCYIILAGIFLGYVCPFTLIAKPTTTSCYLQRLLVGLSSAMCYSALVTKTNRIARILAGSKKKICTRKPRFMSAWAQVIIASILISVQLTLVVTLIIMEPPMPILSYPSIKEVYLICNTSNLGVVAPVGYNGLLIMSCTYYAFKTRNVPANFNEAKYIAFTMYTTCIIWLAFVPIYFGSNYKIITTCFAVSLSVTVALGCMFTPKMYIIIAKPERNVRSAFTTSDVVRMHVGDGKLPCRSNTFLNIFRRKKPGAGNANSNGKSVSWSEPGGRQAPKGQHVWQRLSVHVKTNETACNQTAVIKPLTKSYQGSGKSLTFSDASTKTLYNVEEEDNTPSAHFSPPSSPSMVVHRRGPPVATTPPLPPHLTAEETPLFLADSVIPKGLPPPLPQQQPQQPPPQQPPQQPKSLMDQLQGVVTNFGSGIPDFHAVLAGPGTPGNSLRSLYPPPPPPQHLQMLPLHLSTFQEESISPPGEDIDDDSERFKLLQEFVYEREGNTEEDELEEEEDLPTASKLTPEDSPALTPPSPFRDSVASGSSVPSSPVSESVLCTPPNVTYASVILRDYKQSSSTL
Description: MGluR1 receptor binding testes were performed according to modified method of Lavreysen et al. (Mol. Pharm., 2003, 63, 1082). Based on the high homology between the human and rat mGluR1 receptors, rat cerebellar membrane preparation was used to determine the binding characteristics of reference compounds and novel compounds to the rat mGluR1. As radioligand [3H]R214127 (3 nM) was used and the nonspecific binding was determined in the presence of 1 μM of R214127.
IC-50 values were determined from displacement curves by nonlinear regression analysis and were converted by equation method of Cheng and Prusoff (Biochem. Pharmacol., 1973, 22, 3099) to Ki values.

Q: How did the Ki (mGluR5) turn out when `CCOC(=O)CC(=O)c1sc2ncccc2c1-c1ccc(C)cc1` [Compound 22, 3-oxo-3-(3-p-tolyl-thieno[2,3-b]pyridin-2-yl)-propionic acid ethyl ester] was run?
A: The Ki was under 500 nM.

Q: And the Ki (rat mGluR1)?
A: The Ki was under 500 nM.

Q: What does the source list for `O=C(Nc1ccc(F)cc1)c1sc2ncccc2c1-c1ccc(F)cc1` [Compound 37]?
A: Ki (mGluR5): > 1500 nM; Ki (rat mGluR1): > 1500 nM

Q: What does the source list for `O=C(CCc1cccs1)c1sc2ncccc2c1-c1ccc(F)cc1` [Compound 18]?
A: Ki (mGluR5): 500 to 1500 nM; Ki (rat mGluR1): < 500 nM

Q: With `O=C(NCc1ccc(F)cc1)c1sc2ncccc2c1-c1ccc(F)cc1` [Compound 27, 3-(4-Fluoro-phenyl)-thieno[2,3-b]pyridin-2-carboxylic acid (4-fluoro-benzyl)-amide] as the molecule, how does the Ki (mGluR5) read?
A: The Ki was under 500 nM.

Q: And the Ki (rat mGluR1)?
A: The Ki was under 500 nM.

Q: How did the Ki (mGluR5) turn out when `O=C(CCc1ccsc1)c1sc2ncccc2c1-c1ccc(F)cc1` [Compound 19, 1-[3-(4-fluoro-phenyl)-thieno[2,3-b]pyridin-2-yl]-3-thiophen-3-yl-propan-1-one] was run?
A: The Ki was under 500 nM.

Q: What about the Ki (rat mGluR1) of the same molecule?
A: The Ki was under 500 nM.

Q: What does the source list for `O=C(CCc1ccc(F)cc1)c1sc2ncccc2c1-c1ccc(F)cc1` [Compound 5, 3-(4-Fluoro-phenyl)-1-[3-(4-fluoro-phenyl)-thieno[2,3-b]pyridin-2-yl]-propan-1-one]?
A: Ki (mGluR5): < 500 nM; Ki (rat mGluR1): < 500 nM

Q: What does the source list for “3-(4-Fluoro-phenyl)-1-[3-(4-fluoro-phenyl)-thieno[2,3-b]pyridin-2-yl]-propenone [Compound 10]”?
A: Ki (mGluR5): > 1500 nM; Ki (rat mGluR1): < 500 nM

Q: For `O=C(CCc1cccc(F)c1)c1sc2ncccc2c1-c1ccc(F)cc1` [Compound 4, 3-(3-fluoro-phenyl)-1-[3-(4-fluoro-phenyl)-thieno[2,3-b]pyridin-2-yl]-propan-1-one], which Ki (mGluR5) is on record?
A: The Ki was under 500 nM.

Q: And the Ki (rat mGluR1)?
A: Its Ki is under 500 nM.

Q: Which results are given for `O=C(Nc1nccs1)c1sc2ncccc2c1-c1ccc(Cl)cc1` [Compound 35]?
A: Ki (mGluR5): > 1500 nM; Ki (rat mGluR1): > 1500 nM

Q: `O=C(OCc1ccc(F)cc1)c1sc2ncccc2c1-c1ccc(Cl)cc1` [Compound 20, 3-(4-chloro-phenyl)-thieno[2,3-b]pyridine-2-carboxylic acid 4-fluoro-benzyl ester] was tested. Which Ki (mGluR5) did it give?
A: The Ki was under 500 nM.

Q: And the Ki (rat mGluR1)?
A: Its Ki is under 500 nM.

Q: Which results are given for `CCOC(=O)CC(=O)c1sc2ncccc2c1-c1ccc(F)cc1` [Compound 24, 3-[3-(4-fluoro-phenyl)-thieno[2,3-b]pyridin-2-yl]-3-oxo-propionic acid ethyl ester]?
A: Ki (mGluR5): < 500 nM; Ki (rat mGluR1): < 500 nM

Q: With `CCOC(=O)CC(=O)c1sc2ncccc2c1-c1ccc(Cl)cc1` [Compound 23, 3-[3-(4-Chloro-phenyl)-thieno[2,3-b]pyridin-2-yl]-3-oxo-propionic acid ethyl ester] as the molecule, how does the Ki (mGluR5) read?
A: The Ki was under 500 nM.

Q: What about the Ki (rat mGluR1) of the same molecule?
A: Its Ki is under 500 nM.

Q: Which results are given for `CCOC(=O)CC(=O)c1sc2nc(C)ccc2c1-c1ccc(Cl)cc1` [Compound 26, 3-[3-(4-chloro-phenyl)-6-methyl-thieno[2,3-b]pyridin-2-yl]-3-oxo-propionic acid ethyl ester]?
A: Ki (mGluR5): < 500 nM; Ki (rat mGluR1): < 500 nM

Q: How did the Ki (mGluR5) turn out when `CN(Cc1ccc(F)cc1)C(=O)c1sc2ncccc2c1-c1ccc(Cl)cc1` [Compound 34] was run?
A: The Ki was over 1500 nM.

Q: What about the Ki (rat mGluR1) of the same molecule?
A: Its Ki is 500 to 1500 nM.

Q: Which results are given for `CCOC(=O)CC(=O)c1sc2ncccc2c1-c1ccccc1` [Compound 25, 3-oxo-3-(3-phenyl-thieno[2,3-b]pyridin-2-yl)-propionic acid ethyl ester]?
A: Ki (mGluR5): < 500 nM; Ki (rat mGluR1): < 500 nM

Q: For `O=C(Cc1ccc(F)cc1)c1sc2ncccc2c1-c1ccc(Cl)cc1` [Compound 1, 1-[3-(4-chloro-phenyl)-thieno[2,3-b]pyridin-2-yl]-2-(4-fluoro-phenyl)-ethanone], which Ki (mGluR5) is on record?
A: The Ki was under 500 nM.

Q: What about the Ki (rat mGluR1) of the same molecule?
A: Its Ki is under 500 nM.

Q: What does the source list for `CN(Cc1cccs1)C(=O)c1sc2ncccc2c1-c1ccc(Cl)cc1` [Compound 30]?
A: Ki (mGluR5): > 1500 nM; Ki (rat mGluR1): > 1500 nM

Q: What does the source list for `O=C(Cc1ccc(F)cc1)c1sc2ncccc2c1-c1ccc(F)cc1` [Compound 3, 2-(4-fluoro-phenyl)-1-[3-(4-fluoro-phenyl)-thieno[2,3-b]pyridin-2-yl]-ethanone]?
A: Ki (mGluR5): < 500 nM; Ki (rat mGluR1): < 500 nM

Q: What does the source list for `O=C(CCc1ccccn1)c1sc2ncccc2c1-c1ccc(F)cc1` [Compound 17]?
A: Ki (mGluR5): 500 to 1500 nM; Ki (rat mGluR1): < 500 nM

Q: What does the source list for `O=C(CCc1ccoc1)c1sc2ncccc2c1-c1ccc(F)cc1` [Compound 16]?
A: Ki (mGluR5): 500 to 1500 nM; Ki (rat mGluR1): 500 to 1500 nM

Q: How did the Ki (mGluR5) turn out when `O=C(Cc1ccc(F)c(F)c1)c1sc2ncccc2c1-c1ccc(Cl)cc1` [Compound 2, 1-[3-(4-chloro-phenyl)-thieno[2,3-b]pyridin-2-yl]-2-(3,4-difluoro-phenyl)-ethanone] was run?
A: Its Ki is under 500 nM.

Q: And the Ki (rat mGluR1)?
A: Its Ki is under 500 nM.
